# Measurements reported in ChEMBL document CHEMBL3885881, “DrugMatrix”.
# Organism: Rattus norvegicus
# Test: DrugMatrix - Regimen: Daily Repeat
# Assay type: toxicity, organism-based, Sprague-Dawley
# Parameters: regimen Daily Repeat, gender Male, age 6-8 weeks
# Settings: in vivo, po, route oral GAVAGE, vehicle 100 % WATER; for ABSOLUTE BASOPHIL / ABSOLUTE EOSINOPHIL / ABSOLUTE LYMPHOCYTE / ABSOLUTE MONOCYTE / ABSOLUTE SEGMENTED NEUTROPHIL / BASOPHIL / EOSINOPHIL / ERYTHROCYTE COUNT / HEMATOCRIT / HEMOGLOBIN / LEUKOCYTE COUNT / LYMPHOCYTE / MEAN CORPUSCULAR HEMOGLOBIN / MEAN CORPUSCULAR HEMOGLOBIN CONCENTRATION / MEAN CORPUSCULAR VOLUME / MONOCYTE / NEUTROPHIL / NUCLEATED RED BLOOD CELLS / PLATELET COUNT: tissue Blood; for ALANINE AMINOTRANSFERASE / ALBUMIN / ALKALINE PHOSPHATASE / ASPARTATE AMINOTRANSFERASE / BLOOD UREA NITROGEN / CARBON DIOXIDE / CHLORIDE / CHOLESTEROL / CREATINE PHOSPHOKINASE / CREATININE / GLUCOSE / LACTATE DEHYDROGENASE / LIPASE / PHOSPHORUS / POTASSIUM / SODIUM / TOTAL BILIRUBIN / TOTAL PROTEIN / URIC ACID: tissue Plasma
# [1] = 56 mg/kg, 120 h, dose level Low, time 5 day
# [2] = 476 mg/kg, 72 h, dose level High, time 3 day
# [3] = 476 mg/kg, 120 h, dose level High, time 5 day
compound,measurement,setting,value
CC[C@H]1OC(=O)[C@H](C)[C@@H](O[C@H]2C[C@@](C)(OC)[C@@H](O)[C@H](C)O2)[C@H](C)[C@@H](O[C@@H]2O[C@H](C)C[C@H](N(C)C)[C@H]2O)[C@](C)(OC)C[C@@H](C)C(=O)[C@H](C)[C@@H](O)[C@]1(C)O [CLARITHROMYCIN],ABSOLUTE BASOPHIL,[1],0 CELLS/uL
same,ABSOLUTE EOSINOPHIL,[1],40 CELLS/uL
same,ABSOLUTE LYMPHOCYTE,[1],7764 CELLS/uL
same,ABSOLUTE MONOCYTE,[1],32 CELLS/uL
same,ABSOLUTE SEGMENTED NEUTROPHIL,[1],364 CELLS/uL
same,BASOPHIL,[1],0%
same,EOSINOPHIL,[1],0.67%
same,ERYTHROCYTE COUNT,[1],5.84 x10E6/uL
same,HEMATOCRIT,[1],35.03%
same,HEMOGLOBIN,[1],13.63 G/DL
same,LEUKOCYTE COUNT,[1],8.2 x10E3/uL
same,LYMPHOCYTE,[1],94.67%
same,MEAN CORPUSCULAR HEMOGLOBIN,[1],23.37 pg
same,MEAN CORPUSCULAR HEMOGLOBIN CONCENTRATION,[1],38.9 G/DL
same,MEAN CORPUSCULAR VOLUME,[1],60.03 fL
same,MONOCYTE,[1],0.33%
same,NEUTROPHIL,[1],4.33%
same,NUCLEATED RED BLOOD CELLS,[1],0 /100WBC
same,PLATELET COUNT,[1],1127.33 x10E3/uL
same,ALANINE AMINOTRANSFERASE,[1],56 u/L
same,ALBUMIN,[1],3.97 G/DL
same,ALKALINE PHOSPHATASE,[1],322 u/L
same,ASPARTATE AMINOTRANSFERASE,[1],90.33 u/L
same,BLOOD UREA NITROGEN,[1],16.67 mg/dL
same,CARBON DIOXIDE,[1],34 mmol/L
same,CHLORIDE,[1],98.67 MEQ/L
same,CHOLESTEROL,[1],84 mg/dL
same,CREATINE PHOSPHOKINASE,[1],286 u/L
same,CREATININE,[1],0.11 mg/dL
same,GLUCOSE,[1],141 mg/dL
same,LACTATE DEHYDROGENASE,[1],125 u/L
same,LIPASE,[1],13 u/L
same,PHOSPHORUS,[1],11.17 mg/dL
same,POTASSIUM,[1],6.34 MEQ/L
same,SODIUM,[1],144.27 MEQ/L
same,TOTAL BILIRUBIN,[1],0.17 mg/dL
same,TOTAL PROTEIN,[1],5.97 G/DL
same,URIC ACID,[1],0.73 mg/dL
same,ABSOLUTE BASOPHIL,[2],0 CELLS/uL
same,ABSOLUTE EOSINOPHIL,[2],46 CELLS/uL
same,ABSOLUTE LYMPHOCYTE,[2],13692.67 CELLS/uL
same,ABSOLUTE MONOCYTE,[2],172 CELLS/uL
same,ABSOLUTE SEGMENTED NEUTROPHIL,[2],556 CELLS/uL
same,BASOPHIL,[2],0%
same,EOSINOPHIL,[2],0.33%
same,ERYTHROCYTE COUNT,[2],5.74 x10E6/uL
same,HEMATOCRIT,[2],36.57%
same,HEMOGLOBIN,[2],14.2 G/DL
same,LEUKOCYTE COUNT,[2],14.47 x10E3/uL
same,LYMPHOCYTE,[2],94.67%
same,MEAN CORPUSCULAR HEMOGLOBIN,[2],24.73 pg
same,MEAN CORPUSCULAR HEMOGLOBIN CONCENTRATION,[2],38.83 G/DL
same,MEAN CORPUSCULAR VOLUME,[2],63.7 fL
same,MONOCYTE,[2],1%
same,NEUTROPHIL,[2],4%
same,NUCLEATED RED BLOOD CELLS,[2],0 /100WBC
same,PLATELET COUNT,[2],1345 x10E3/uL
same,ALANINE AMINOTRANSFERASE,[2],55.33 u/L
same,ALBUMIN,[2],3.8 G/DL
same,ALKALINE PHOSPHATASE,[2],227.33 u/L
same,ASPARTATE AMINOTRANSFERASE,[2],72.33 u/L
same,BLOOD UREA NITROGEN,[2],8.33 mg/dL
same,CARBON DIOXIDE,[2],29.67 mmol/L
same,CHLORIDE,[2],99.33 MEQ/L
same,CHOLESTEROL,[2],68 mg/dL
same,CREATINE PHOSPHOKINASE,[2],191.67 u/L
same,CREATININE,[2],0.37 mg/dL
same,GLUCOSE,[2],161 mg/dL
same,LACTATE DEHYDROGENASE,[2],112 u/L
same,LIPASE,[2],28.67 u/L
same,PHOSPHORUS,[2],11.53 mg/dL
same,POTASSIUM,[2],6.1 MEQ/L
same,SODIUM,[2],142.2 MEQ/L
same,TOTAL BILIRUBIN,[2],0.13 mg/dL
same,TOTAL PROTEIN,[2],5.83 G/DL
same,URIC ACID,[2],1.23 mg/dL
same,ABSOLUTE BASOPHIL,[3],0 CELLS/uL
same,ABSOLUTE EOSINOPHIL,[3],0 CELLS/uL
same,ABSOLUTE LYMPHOCYTE,[3],10830 CELLS/uL
same,ABSOLUTE MONOCYTE,[3],144.67 CELLS/uL
same,ABSOLUTE SEGMENTED NEUTROPHIL,[3],592 CELLS/uL
same,BASOPHIL,[3],0%
same,EOSINOPHIL,[3],0%
same,ERYTHROCYTE COUNT,[3],5.53 x10E6/uL
same,HEMATOCRIT,[3],34.87%
same,HEMOGLOBIN,[3],13.93 G/DL
same,LEUKOCYTE COUNT,[3],11.57 x10E3/uL
same,LYMPHOCYTE,[3],94%
same,MEAN CORPUSCULAR HEMOGLOBIN,[3],25.2 pg
same,MEAN CORPUSCULAR HEMOGLOBIN CONCENTRATION,[3],40 G/DL
same,MEAN CORPUSCULAR VOLUME,[3],63.07 fL
same,MONOCYTE,[3],1%
same,NEUTROPHIL,[3],5%
same,NUCLEATED RED BLOOD CELLS,[3],0 /100WBC
same,PLATELET COUNT,[3],1171.67 x10E3/uL
same,ALANINE AMINOTRANSFERASE,[3],58 u/L
same,ALBUMIN,[3],3.67 G/DL
same,ALKALINE PHOSPHATASE,[3],256.67 u/L
same,ASPARTATE AMINOTRANSFERASE,[3],67 u/L
same,BLOOD UREA NITROGEN,[3],13.33 mg/dL
same,CARBON DIOXIDE,[3],34.67 mmol/L
same,CHLORIDE,[3],98 MEQ/L
same,CHOLESTEROL,[3],64.33 mg/dL
same,CREATINE PHOSPHOKINASE,[3],178.33 u/L
same,CREATININE,[3],0.18 mg/dL
same,GLUCOSE,[3],126.67 mg/dL
same,LACTATE DEHYDROGENASE,[3],105.33 u/L
same,LIPASE,[3],11.67 u/L
same,PHOSPHORUS,[3],9.63 mg/dL
same,POTASSIUM,[3],6.01 MEQ/L
same,SODIUM,[3],142.53 MEQ/L
same,TOTAL BILIRUBIN,[3],0.13 mg/dL
same,TOTAL PROTEIN,[3],5.9 G/DL
same,URIC ACID,[3],0.6 mg/dL
